Reference: patent US5866087A, “Calixarene derivatives, their preparation process and their use for extracting actinides and lanthanides” (priority 1995, dated 1999)

Assays:
[1] = liquid-liquid extraction from aqueous nitric solution, distribution coefficient D; type: physicochemical; details: for D(distribution coefficient) 152-Eu: pH ≈0, 1 hour contacting
Procedure: In these examples, an evaluation takes place of the effectiveness of the calixarenes of table 1 for extracting plutonium, neptunium and americium, as well as europium (simulating all the trivalent lanthanides) of an aqueous solution containing one of these elements. The composition of the aqueous solution is as follows:
[…] Contacting takes place in a 20 ml polypropylene tube, which undergoes stirring. After 1 hour of contacting, the two phases are allowed to settle and the activity of each phase is counted by liquid scintillation or α and γ spectrometries.
The distribution coefficient D is then determined and this corresponds to the ratio of the activity of actinide in the organic phase to the activity of actinide in the aqueous phase.

[2] = supported liquid membrane transport into aqueous reextraction solution; type: physicochemical; details: for Percentage transported in 6 h. 237 Np / Percentage transported in 6 h. 239 Pu / Percentage transported in 6 h. 241 Am / Percentage of 239Pu transported in 24 h / Percentage transported in 24 h. 237 Np / Percentage transported in 24 h. 241 Am / Percentage transported in 6 h. 152 Eu / Percentage transported in 24 h. 152 Eu: supported liquid membrane, 0.001 or 0.0001M calixarene (CMPO 10^-2 M); for Permeability (cm/h) 237 Np / Permeability (cm/h) 239 Pu / Permeability (cm/h) 241 Am / Permeability (cm/h) 152 Eu: CELGARD 2500 membrane, nitrophenylhexyl ether with 0.001 or 0.0001M calixarene (CMPO 10^-2 M), reextraction 1 mole/l methylene diphosphonic acid
Text: These examples use the second embodiment of the process according to the invention for extracting europium, neptunium, plutonium and americium from aqueous solutions having the same compositions as those used in examples 7 to 16. These examples use the device shown in the attached drawing.
This device comprises an enclosure 1 subdivided into two compartents 3 and 5 by a supported liquid membrane 7, constituted by a microporous polypropylene membrane marketed under the name CELGARD 2500 and having the following characteristics:
membrane thickness: 0.025 mm.
The pores of this membrane are filled with an organic phase constituted by nitrophenylhexyl ether incorporating 0.001 or 0.0001M of calixarene.
Compartment 3 contains 50 ml of aqueous solution (NaNO3 :4 mole/l, HNO3 : 1mole/l with Eu, Np, Pu, Am); and compartment 5 contains 50ml of an aqueous reextraction solution constituted by an aqueous solution with 1 mole/l of methylene diphosphonic acid.
The two solutions are stirred and the initial activity of the solution of compartment 3 is determined, followed by the activity of the aqueous reextraction solution of compartment 5 by liquid α spectrometry and the operation is continued for one day. From it is deduced the percentage of neptunium, plutonium, americium and europium recovered in the aqueous reextraction solution after 6 and 24 h.
The calixarenes used, the permeability (in cm h^-1) of the membrane to Np and Pu, as well as the %, at the end of 6 and 24 h,of Eu, Am, Np and Pu recovered are given in table 3.

[3] = CMPO 0.01M in nitrophenyl hexyl ether, comparative
[4] = calixarene 0.001M in nitrophenyloctylether, aqueous HNO3, NaNO3 4 mole/l, 1 hour, * = precipitation
[5] = calixarene 0.001M in nitrophenyloctylether, aqueous HNO3, NaNO3 4 mole/l
[6] = calixarene 0.0001M in nitrophenyloctylether, aqueous HNO3, NaNO3 4 mole/l, 1 hour, * = precipitation

Structure (SMILES): CCCCCCCCP(=O)(CC(=O)N(CC(C)C)CC(C)C)c1ccccc1 (centres unmarked) [CMPO, reference compound]
- D(distribution coefficient) 237-Np [1, 3]: 0.85
- D(distribution coefficient) 239-Pu [1, 3]: 22
- D(distribution coefficient) 241-Am [1, 3]: 1.2
- Percentage transported in 6 h. 237 Np [2]: 50%
- Percentage transported in 6 h. 239 Pu [2]: 99%
- Percentage transported in 6 h. 241 Am [2]: 9.8%
- Percentage of 239Pu transported in 24 h [2]: 100%
- Percentage transported in 24 h. 237 Np [2]: 68%
- Percentage transported in 24 h. 241 Am [2]: 45%
- Permeability (cm/h) 237 Np [2]: 0.74 cm/h
- Permeability (cm/h) 239 Pu [2]: 3.44 cm/h
- Permeability (cm/h) 241 Am [2]: 0.17 cm/h

Structure (SMILES): CCCCCCCCCCCCOc1c2cc(NC(=O)CP(=O)(c3ccccc3)c3ccccc3)cc1Cc1cc(NC(=O)CP(=O)(c3ccccc3)c3ccccc3)cc(c1OCCCCCCCCCCCC)Cc1cc(NC(=O)CP(=O)(c3ccccc3)c3ccccc3)cc(c1OCCCCCCCCCCCC)Cc1cc(NC(=O)CP(=O)(c3ccccc3)c3ccccc3)cc(c1OCCCCCCCCCCCC)C2 [Compound 1, 25, 26, 27, 28 tetradodecyloxy-tetra-5, 11, 17, 23-(diphenylphosphinoxidoacetamido) calix[4]arene]
- D(distribution coefficient) 237-Np [1, 4]: 4
- D(distribution coefficient) 239-Pu [1, 4]: > 100
- D(distribution coefficient) 241-Am [1, 4]: > 100
- Percentage transported in 6 h. 152 Eu [2]: 95%
- Percentage transported in 6 h. 237 Np [2]: 56%
- Percentage transported in 6 h. 239 Pu [2]: 84%
- Percentage transported in 6 h. 241 Am [2]: 97%
- Percentage of 239Pu transported in 24 h [2]: 85%
- Percentage transported in 24 h. 152 Eu [2]: 100%
- Percentage transported in 24 h. 237 Np [2]: 66%
- Percentage transported in 24 h. 241 Am [2]: 100%
- Permeability (cm/h) 152 Eu [2]: 2.75 cm/h
- Permeability (cm/h) 237 Np [2]: 1.35 cm/h
- Permeability (cm/h) 239 Pu [2]: 3.4 cm/h
- Permeability (cm/h) 241 Am [2]: 4.9 cm/h

Structure (SMILES): CCCCCCCCCCOc1c2cc(NC(=O)CP(=O)(c3ccccc3)c3ccccc3)cc1Cc1cc(NC(=O)CP(=O)(c3ccccc3)c3ccccc3)cc(c1OCCCCCCCCCC)Cc1cc(NC(=O)CP(=O)(c3ccccc3)c3ccccc3)cc(c1OCCCCCCCCCC)Cc1cc(NC(=O)CP(=O)(c3ccccc3)c3ccccc3)cc(c1OCCCCCCCCCC)C2 [Compound 2, tetra-O-decyl tetrakis (diphenyl phosphinoxidoacetamido)calix[4]arene]
- D(distribution coefficient) 152-Eu [1, 5]: > 100
- D(distribution coefficient) 237-Np [1, 4]: 2
- D(distribution coefficient) 239-Pu [1, 4]: 90
- D(distribution coefficient) 241-Am [1, 4]: 100
- Percentage transported in 6 h. 237 Np [2]: 73%
- Percentage transported in 6 h. 239 Pu [2]: 82%
- Percentage transported in 6 h. 241 Am [2]: 95.5%
- Percentage of 239Pu transported in 24 h [2]: 83%
- Percentage transported in 24 h. 237 Np [2]: 80%
- Percentage transported in 24 h. 241 Am [2]: 100%
- Permeability (cm/h) 237 Np [2]: 3 cm/h
- Permeability (cm/h) 239 Pu [2]: 3.6 cm/h
- Permeability (cm/h) 241 Am [2]: 5 cm/h

Structure (SMILES): CCCCCCCCCCCCCCOc1c2cc(NC(=O)CP(=O)(c3ccccc3)c3ccccc3)cc1Cc1cc(NC(=O)CP(=O)(c3ccccc3)c3ccccc3)cc(c1OCCCCCCCCCCCCCC)Cc1cc(NC(=O)CP(=O)(c3ccccc3)c3ccccc3)cc(c1OCCCCCCCCCCCCCC)Cc1cc(NC(=O)CP(=O)(c3ccccc3)c3ccccc3)cc(c1OCCCCCCCCCCCCCC)C2 [Compound 3, tetra-O-tetradecyl tetrakis (diphenyl-phosphinoxidoacetamido)calix[4]arene]
- D(distribution coefficient) 152-Eu [1, 5]: > 100
- D(distribution coefficient) 237-Np [1, 4]: 1.8
- D(distribution coefficient) 239-Pu [1, 4]: 90
- D(distribution coefficient) 241-Am [1, 4]: > 100
- Percentage transported in 6 h. 152 Eu [2]: 90%
- Percentage transported in 6 h. 237 Np [2]: 54%
- Percentage transported in 6 h. 239 Pu [2]: 84%
- Percentage transported in 6 h. 241 Am [2]: 98%
- Percentage of 239Pu transported in 24 h [2]: 88%
- Percentage transported in 24 h. 152 Eu [2]: 98%
- Percentage transported in 24 h. 237 Np [2]: 62%
- Percentage transported in 24 h. 241 Am [2]: 100%
- Permeability (cm/h) 152 Eu [2]: 2.8 cm/h
- Permeability (cm/h) 237 Np [2]: 1.3 cm/h
- Permeability (cm/h) 239 Pu [2]: 2.95 cm/h
- Permeability (cm/h) 241 Am [2]: 5.3 cm/h

Structure (SMILES): CCCCCCCCCCCCCCCCOc1c2cc(NC(=O)CP(=O)(c3ccccc3)c3ccccc3)cc1Cc1cc(NC(=O)CP(=O)(c3ccccc3)c3ccccc3)cc(c1OCCCCCCCCCCCCCCCC)Cc1cc(NC(=O)CP(=O)(c3ccccc3)c3ccccc3)cc(c1OCCCCCCCCCCCCCCCC)Cc1cc(NC(=O)CP(=O)(c3ccccc3)c3ccccc3)cc(c1OCCCCCCCCCCCCCCCC)C2 [Compound 4, tetra-O-hexadecyl tetrakis(diphenyl-phosphinaxidoacetamido)calix[4]arene]
- D(distribution coefficient) 237-Np [1, 6]: 1.1
- D(distribution coefficient) 239-Pu [1, 6]: 27
- D(distribution coefficient) 241-Am [1, 6]: 27
- Percentage transported in 6 h. 237 Np [2]: 21%
- Percentage transported in 6 h. 239 Pu [2]: 54%
- Percentage transported in 6 h. 241 Am [2]: 3%
- Permeability (cm/h) 237 Np [2]: 0.46 cm/h
- Permeability (cm/h) 239 Pu [2]: 1.4 cm/h
- Permeability (cm/h) 241 Am [2]: 0.08 cm/h

Structure (SMILES): CCCCCCCCCCCCCCCCCCOc1c2cc(NC(=O)CP(=O)(c3ccccc3)c3ccccc3)cc1Cc1cc(NC(=O)CP(=O)(c3ccccc3)c3ccccc3)cc(c1OCCCCCCCCCCCCCCCCCC)Cc1cc(NC(=O)CP(=O)(c3ccccc3)c3ccccc3)cc(c1OCCCCCCCCCCCCCCCCCC)Cc1cc(NC(=O)CP(=O)(c3ccccc3)c3ccccc3)cc(c1OCCCCCCCCCCCCCCCCCC)C2 [Compound 5]
- D(distribution coefficient) 237-Np [1, 6]: 1.5
- D(distribution coefficient) 239-Pu [1, 6]: 24
- D(distribution coefficient) 241-Am [1, 6]: 21

Structure (SMILES): CCCCCCCCCCOc1c2cc(NC(=O)CP(=O)(c3ccccc3)c3ccccc3)cc1Cc1cc(NC(=O)CP(=O)(c3ccccc3)c3ccccc3)cc(c1OC)Cc1cc(NC(=O)CP(=O)(c3ccccc3)c3ccccc3)cc(c1OCCCCCCCCCC)Cc1cc(NC(=O)CP(=O)(c3ccccc3)c3ccccc3)cc(c1OC)C2 [Compound 6, 25, 27 didecyloxy-26,28-dimethoxy-5,11, 17,23-(diphenylphosphinoxido-acetamido) calix[4]arene]
- D(distribution coefficient) 152-Eu [1, 5]: > 100
- D(distribution coefficient) 237-Np [1, 4]: 3
- D(distribution coefficient) 239-Pu [1, 4]: 130
- D(distribution coefficient) 241-Am [1, 4]: 240
- Percentage transported in 6 h. 237 Np [2]: 49.4%
- Percentage transported in 6 h. 239 Pu [2]: 97.1%
- Percentage transported in 6 h. 241 Am [2]: 94.2%
- Percentage of 239Pu transported in 24 h [2]: 100%
- Percentage transported in 24 h. 237 Np [2]: 68.3%
- Percentage transported in 24 h. 241 Am [2]: 94.9%
- Permeability (cm/h) 237 Np [2]: 1.6 cm/h
- Permeability (cm/h) 239 Pu [2]: 6.4 cm/h
- Permeability (cm/h) 241 Am [2]: 2.9 cm/h

Structure (SMILES): CCCCCCCCCCCCCCCCCCOc1c2cc(NC(=O)CP(=O)(c3ccccc3)c3ccccc3)cc1Cc1cc(NC(=O)CP(=O)(c3ccccc3)c3ccccc3)cc(c1OC)Cc1cc(NC(=O)CP(=O)(c3ccccc3)c3ccccc3)cc(c1OCCCCCCCCCCCCCCCCCC)Cc1cc(NC(=O)CP(=O)(c3ccccc3)c3ccccc3)cc(c1OC)C2 [Compound 7]
- D(distribution coefficient) 152-Eu [1, 5]: > 100
- D(distribution coefficient) 237-Np [1, 4]: 3
- D(distribution coefficient) 239-Pu [1, 4]: 170
- D(distribution coefficient) 241-Am [1, 4]: 250
- Percentage transported in 6 h. 237 Np [2]: 42.7%
- Percentage transported in 6 h. 239 Pu [2]: 99.7%
- Percentage transported in 6 h. 241 Am [2]: 92.6%
- Percentage of 239Pu transported in 24 h [2]: 100%
- Percentage transported in 24 h. 237 Np [2]: 59.4%
- Percentage transported in 24 h. 241 Am [2]: 99.3%
- Permeability (cm/h) 237 Np [2]: 1.3 cm/h
- Permeability (cm/h) 239 Pu [2]: 7 cm/h
- Permeability (cm/h) 241 Am [2]: 3.2 cm/h

Structure (SMILES): CCCCCOc1c2cc(NC(=O)CP(=O)(c3ccccc3)c3ccccc3)cc1Cc1cc(NC(=O)CP(=O)(c3ccccc3)c3ccccc3)cc(c1OCCCCC)Cc1cc(NC(=O)CP(=O)(c3ccccc3)c3ccccc3)cc(c1OCCCCC)Cc1cc(NC(=O)CP(=O)(c3ccccc3)c3ccccc3)cc(c1OCCCCC)C2 [Compound 8]
- D(distribution coefficient) 152-Eu [1, 5]: > 100
- D(distribution coefficient) 237-Np [1, 4]: 2
- D(distribution coefficient) 239-Pu [1, 4]: 100
- D(distribution coefficient) 241-Am [1, 4]: 250
- Percentage transported in 6 h. 237 Np [2]: 8.5%
- Percentage transported in 6 h. 239 Pu [2]: 79.6%
- Percentage transported in 6 h. 241 Am [2]: 99%
- Percentage of 239Pu transported in 24 h [2]: 80%
- Percentage transported in 24 h. 237 Np [2]: 14.5%
- Percentage transported in 24 h. 241 Am [2]: 100%
- Permeability (cm/h) 237 Np [2]: < 0.2 cm/h
- Permeability (cm/h) 239 Pu [2]: 3.6 cm/h
- Permeability (cm/h) 241 Am [2]: 3.4 cm/h
